The numbers were not newly measured in patent US11273077B2, “Wound packing material comprising chemoeffector” (priority 2015, dated 2022), which cites them from elsewhere.

One series relates to Escherichia Coli. The note with it: Tar and Tsr receptor mediated.

With `NCCCC(=O)O` [GABA, gamma-aminobutyrate], the “specificity of chemotaxis toward intermediates of amino acid metabolism” value in the series with Pseudomonas Aeruginosa was “high specificity”. Regarding `N[C@@H](CO)C(=O)O` [L-serine], the “ligand specificity as chemoattractant” value in the series on Enterobacteria is given as “high ligand specificity”. Further, the “concentration that induces E. coli chemotaxis” value with Escherichia Coli is reported as “nanomolar range”.
